Measurements as given in ChEMBL document CHEMBL1124228, “Synthesis of (aryloxy)alkylamines. 1. Novel antisecretory agents with H+K+-ATPase inhibitory activity” (J Med Chem, 1988).

Experiments:
[1] = target: T1, Potassium-transporting ATPase (Homo sapiens, UniProt P20648); test: Antisecretory activity evaluated by the inhibition of 14C -AP uptake in isolated rabbit parietal cells stimulated by exogenous histamine; type: functional, Oryctolagus cuniculus
Rattus norvegicus [2] = test: Effective dose required for the inhibition of total acid secretion in pylorus-ligated rats at 20 mg/kg; type: functional
[3] = target: T1, Potassium-transporting ATPase; test: Antisecretory activity evaluated by the inhibition of 14C -AP uptake in isolated rabbit parietal cells stimulated by dibutyryl cyclic adenosine 3', 5' -monophosphate (dcAMP); type: functional, Oryctolagus cuniculus
Rattus norvegicus [4] = test: Percent inhibition of total acid secretion in pylorus-ligated rats at an id dose of 20 mg/kg; type: functional; details: route intraduodenal
Rattus norvegicus [5] = organism: Rattus norvegicus; test: Effective dose required for the inhibition of total acid secretion in pylorus-ligated rats; type: functional
Rattus norvegicus [6] = test: Percent inhibition of total acid secretion in pylorus-ligated rats at an id dose of 40 mg/kg; type: functional; details: route intraduodenal
[7] = target entry is the homologue from another species

| Structure (SMILES) | IC50 [1, 7] | IC50 [3, 7] | inhibition in vivo at 20 mg/kg (Rattus norvegicus [4]) | further results |
| --- | --- | --- | --- | --- |
| CNC(=C[N+](=O)[O-])NCCSCc1ccc(CN(C)C)o1 [RANITIDINE] | 40 nM |  |  | ED50 (Rattus norvegicus [2]): 9.1 mg/kg |
| CCCCN(CCCC)CCCOc1ccc(-c2csc(-c3ccc(C)cc3)n2)cc1 | 1500 nM | 3000 nM | 41% |  |
| CCCCN(CCCC)CCCOc1ccc(-c2csc(-c3cc(OC)cc(OC)c3)n2)cc1 | 260 nM | 540 nM | 17% |  |
| CCCCN(CCCC)CCCOc1ccc(/C=C/c2nc3ccc(OC)cc3s2)cc1 | 260 nM | 460 nM | 31% |  |
| CCCN(CCC)CCCCOc1ccc(/C=C/c2nc3ccccc3o2)cc1.Cl | 390 nM | 110 nM | 90% | ED50 (Rattus norvegicus [5]): 11.5 mg/kg |
| COc1ccc2[nH]c([S+]([O-])Cc3ncc(C)c(OC)c3C)nc2c1 (stereo not given) [OMEPRAZOLE] |  |  |  | ED50 (Rattus norvegicus [2]): 7.1 mg/kg |
| C(=C\c1nc2ccccc2o1)/c1ccc(OCCCCn2ccnc2)cc1 | 270 nM | 330 nM | 14% |  |
| CCN(CC)CCCCOc1ccc(/C=C/c2nc3ccccc3o2)cc1 | 80 nM | 120 nM | 31% |  |
| CCCCN(CCCC)CCCOc1ccc(/C=C/c2nc3ccccc3[nH]2)cc1 | 2300 nM | 1500 nM | 2.8% |  |
| CCCCN(CCCC)CCOc1ccc(/C=C/c2nc3ccccc3o2)cc1 | 260 nM | 540 nM | 43% |  |
| C(=C\c1nc2ccccc2s1)/c1ccc(OCCCCN2CCCC2)cc1 | 160 nM | 260 nM | 20% |  |
| C(=C\c1nc2ccccc2s1)/c1ccc(OCCCn2ccnc2)cc1 | 130 nM | 340 nM | 22% |  |
| CCCCN(CCCC)CCCOc1ccc(/C=C/c2nc3cc(C)ccc3s2)cc1 | 290 nM | 530 nM | 14% |  |
| CCCN(CCC)CCCOc1ccc(-c2csc(-c3ccccc3)n2)cc1 | 230 nM | 180 nM |  | inhibition in vivo at 40 mg/kg (Rattus norvegicus [6]): 94% |
| CN/C(=N\CCSCc1nc[nH]c1C)NC#N [CIMETIDINE] |  |  |  | IC50 [3]: > 100000 nM; IC50 [1]: 820 nM; ED50 (Rattus norvegicus [5]): 32 mg/kg |
| CCN(CC)CCCOc1ccc(/C=C/c2nc3ccccc3s2)cc1 | 370 nM | 150 nM |  | inhibition in vivo at 40 mg/kg (Rattus norvegicus [6]): 71% |
| CCCCN(CCCC)CCOc1ccc(-c2csc(-c3ccccc3)n2)cc1 | 310 nM | 350 nM | 41% |  |
| c1ccc(-c2nc(-c3ccc(OCCCCn4ccnc4)cc3)cs2)cc1 | 820 nM | 310 nM |  | inhibition in vivo at 40 mg/kg (Rattus norvegicus [6]): 31% |
| CCCCN(CCCC)CCCOc1ccc(-c2nc3ccccc3s2)cc1 | 250 nM | 2600 nM |  |  |
| CCCCN(CCCC)CCCOc1ccc(/C=C/c2nc3cc(Cl)ccc3s2)cc1 | 400 nM | 500 nM | 26% |  |
| CCN(CC)CCCOc1ccc(/C=C/c2nc3ccccc3o2)cc1 | 320 nM | 980 nM |  | inhibition in vivo at 40 mg/kg (Rattus norvegicus [6]): 54% |
| CCCCN(CCCC)CCCOc1ccc(/C=C/c2nc3ccccc3o2)cc1 | 150 nM | 150 nM |  | inhibition in vivo at 40 mg/kg (Rattus norvegicus [6]): 96% |
| CCCCN(CCCC)CCCOc1ccc(/C=C/c2nc3ccccc3n2C)cc1 | 800 nM | 2600 nM | 1.6% |  |
| C(=C\c1nc2ccccc2o1)/c1ccc(OCCCCCn2ccnc2)cc1 | 280 nM | 230 nM | 45% |  |
| CCCCN(CCCC)CCCOc1ccc(-c2csc(-c3ccc(OC)cc3)n2)cc1 | 480 nM | 230 nM | 4% |  |
| CCCCN(CCCC)CCCOc1ccc(/C=C/c2nc3cc(C)ccc3o2)cc1 | 260 nM | 340 nM |  | inhibition in vivo at 40 mg/kg (Rattus norvegicus [6]): 88% |

| Structure (SMILES) | IC50 [1, 7] | IC50 [3, 7] | inhibition in vivo at 20 mg/kg (Rattus norvegicus [4]) | further results |
| --- | --- | --- | --- | --- |
| CCCCN(CCCC)CCCOc1ccc(-c2nc3ccccc3[nH]2)cc1 | 1800 nM | 1200 nM |  | inhibition in vivo at 40 mg/kg (Rattus norvegicus [6]): 24% |
| CCCCN(CCCC)CCCOc1ccc(/C=C/c2nc3ccc(OC)cc3o2)cc1 | 80 nM | 50 nM |  | inhibition in vivo at 40 mg/kg (Rattus norvegicus [6]): 64% |
| CCCCN(CCCC)CCCOc1ccc(-c2csc(-c3ccc(C(F)(F)F)cc3)n2)cc1 | 2900 nM | 2000 nM |  | inhibition in vivo at 40 mg/kg (Rattus norvegicus [6]): 40% |
| CCCCN(CCCC)CCCCCOc1ccc(-c2csc(-c3ccccc3)n2)cc1 | 490 nM | 860 nM | 54% |  |
| CCCCN(CCCC)CCCCOc1ccc(-c2csc(-c3ccccc3)n2)cc1 | 130 nM | 120 nM | 56% |  |
| CCN(CC)CCCCOc1ccc(/C=C/c2nc3ccccc3s2)cc1 | 180 nM | 350 nM | 52% |  |
| CCCCN(CCCC)CCCOc1ccc(-c2csc(-c3cccnc3)n2)cc1 | 1650 nM | 880 nM | 19% |  |
| CCCN(CCC)CCCOc1ccc(/C=C/c2nc3ccccc3s2)cc1 | 210 nM | 140 nM |  | inhibition in vivo at 20 mg/kg (Rattus norvegicus [2]): 42% |
| C(=C\c1nc2ccccc2o1)/c1ccc(OCCCn2ccnc2)cc1 | 290 nM | 250 nM |  | inhibition in vivo at 20 mg/kg (Rattus norvegicus [2]): 26% |
| C(=C\c1nc2ccccc2o1)/c1ccc(OCCCCN2CCCCC2)cc1 | 170 nM | 330 nM | 42% |  |
| C(=C\c1nc2ccccc2s1)/c1ccc(OCCCN2CCCCC2)cc1 | 180 nM | 210 nM | 32% |  |
| CCCCN(CCCC)CCCOc1ccc(-c2nc(-c3ccccc3)sc2CC)cc1 | 340 nM | 240 nM |  |  |
| CCN(CC)CCCOc1ccc(-c2csc(-c3ccccc3)n2)cc1 | 120 nM | 90 nM |  | inhibition in vivo at 40 mg/kg (Rattus norvegicus [6]): 82% |
| CCCCN(CCCC)CCCOc1ccc(/C=C/c2nc3ccccc3s2)cc1 | 250 nM | 260 nM | 40% |  |
| CCCN(CCC)CCCCOc1ccc(/C=C/c2nc3ccccc3s2)cc1.Cl.O | 30 nM | 120 nM |  | inhibition in vivo at 40 mg/kg (Rattus norvegicus [6]): 93%; ED50 (Rattus norvegicus [5]): 13.6 mg/kg |
| C(=C\c1nc2ccccc2o1)/c1ccc(OCCCCN2CCCC2)cc1 | 170 nM | 240 nM |  | inhibition in vivo at 40 mg/kg (Rattus norvegicus [6]): 24% |
| CCCCN(CCCC)CCCOc1ccc(-c2csc(-c3ccccc3)n2)cc1.Cl | 450 nM | 420 nM |  | ED50 (Rattus norvegicus [2]): 17 mg/kg; inhibition in vivo at 20 mg/kg (Rattus norvegicus [2]): 75% |
| c1ccc(-c2nc(-c3ccc(OCCCN4CCCCC4)cc3)cs2)cc1 | 110 nM | 50 nM | 46% |  |
| C(=C\c1nc2ccccc2s1)/c1ccc(OCCCCn2ccnc2)cc1 | 200 nM | 260 nM |  | inhibition in vivo at 40 mg/kg (Rattus norvegicus [6]): 17% |
| CCCCN(CCCC)CCOc1ccc(/C=C/c2nc3ccccc3s2)cc1 | 430 nM | 600 nM |  | inhibition in vivo at 20 mg/kg (Rattus norvegicus [2]): 14% |
| Cl.O.c1ccc(-c2nc(-c3ccc(OCCCn4ccnc4)cc3)cs2)cc1 | 80 nM | 20 nM |  | ED50 (Rattus norvegicus [2]): 5.1 mg/kg; inhibition in vivo at 20 mg/kg (Rattus norvegicus [2]): 91% |
| CCCN(CCC)CCCOc1ccc(/C=C/c2nc3ccccc3o2)cc1 | 220 nM | 350 nM | 77% |  |
| CCCCN(CCCC)CCCOc1ccc(-c2csc(C)n2)cc1 | 1500 nM | 8400 nM | 8% |  |
| CCCCN(CCCC)CCCOc1ccc(-c2csc(-c3ccc(Cl)cc3)n2)cc1 | 2100 nM | 1800 nM | 40% |  |
| FC(F)(F)c1ccc(-c2nc(-c3ccc(OCCCn4ccnc4)cc3)cs2)cc1 | 370 nM | 620 nM | 27% |  |
| c1cncc(-c2nc(-c3ccc(OCCCn4ccnc4)cc3)cs2)c1 | 3300 nM | 3000 nM | 53% |  |
